Here are results for 1 molecule from patent US9737552B2, “Treatment of cognitive impairment in a subject with a neurological autoimmune disease” (The Johns Hopkins University, priority 2010, dated 2017).

Data set [1] concerns EAE mice. Description: EAE disease score in MOG35-55 immunized mice. The data set is classed as in vivo. As to conditions: 100 mg/kg daily i.p. from immunization until sacrifice; vs Control mice.
Description: The effects of GCPII inhibition were tested on an animal model of multiple sclerosis (experimental autoimmune encephalomyelitis, or “EAE”). To induce EAE, mice were given two 50 μL subcutaneous flank injections of myelin oligodendrocyte glycoprotein 35-55 peptide fragment (MOG35-55) dissolved in 50 μL PBS emulsified in 50 μL IFA supplemented with 400 μg M. tuberculosis H37Ra, at a final concentration of 100 μg MOG35-55 per 100 μL total volume. At the time of MOG immunization and 2 days later, all EAE mice were administered intraperitoneal injections of 300 ng pertussis toxin in 100 μL PBS. Immunized mice were treated with either 2-PMPA or a vehicle control for the duration of the experiment. Vehicle (50 mM HEPES buffer) or 2-PMPA (100 mg/kg in vehicle at a pH of 7.4) was delivered daily via 0.1 mL intraperitoneal injections from the time of EAE immunization until sacrifice.
Data set [2] has as its system EAE mice. Nature of the data set: Barnes maze testing in EAE mice. In kind it is in vivo. As for the experimental part: To measure cognitive function in EAE mice, Barnes maze testing was conducted using the immunized mice, beginning approximately 4 weeks post-immunization. […] Animals were trained on the Barnes maze (AccuScan Instruments, Columbus, Ohio) for 4 trials per day (inter-trial interval >30 minutes) for 4 consecutive days. Briefly, mice were placed in the center of the maze platform under an opaque enclosed 3″×5″× container. After 15 seconds the container was removed and the mice were free to move in the maze. A target box was placed under 1 of the 40 holes around the maze perimeter, and the location of the target box, along with the location of 4 equally spaced polarizing visual cues and one lamp, remained the same throughout all trials. Mice were given up to 3 minutes to locate and enter the target box, and were gently guided into the target box if it was not found within the 3 minute limit. Following entry into the target box, the box was covered and the mouse remained in the box for 30 seconds before transfer to a holding cage. Paths were recorded and latency to the target hole, path efficiency, speed, and directional times were calculated using ANY-maze software (Stoelting, Wood Dale, Ill.).

In data set [3] the test system is EAE mice. Here is the method: A separate cohort of 2-PMPA and Control EAE mice (n=6-7) were tested on the elevated plus maze 27 days after disease induction. Mice were placed in the center of the maze and given 5 minutes to freely explore the maze. Time spent in open and closed arms of the maze were tracked using ANY-maze software (Stoelting, Wood Dale, Ill.).

The nature of data set [4]: Mass spectrometry of 2-PMPA concentration in post-mortem brains of EAE mice. The data set is classed as in vivo. As to conditions: mouse, ip, Mean±SEM, 100 mg/kg daily i.p., sacrifice 50 days after immunization. Here is the method:
(§1) To determine whether GCPII inhibition altered the levels of the enzyme's substrate (NAAG) or product (NAA), mass spectrometry was conducted in post-mortem brains of EAE mice either treated with 2-PMPA or a vehicle control. Animals were sacrificed by cervical dislocation 50 days after EAE immunization. Hippocampus, frontal lobe, and cerebellum structures were dissected, and NAA, NAAG, and 2-PMPA concentrations were measured via mass spectrometry. Briefly, NAAG and NAA in brain tissue homogenates were separated on a Waters Atlantis ODS column. NAA, NAAG, and the internal standard were monitored by tandem mass spectrometry with electrospray negative ionization. Linear calibration curves were generated over the range of 5-5000 ng/mL and converted to μg/g. For determination of 2-PMPA, separations were achieved on a Waters XTerra MS C18 column. 2-PMPA and the internal standard were monitored by tandem mass spectrometry with electrospray negative ionization. Linear calibration curves were generated over the 1-100 ng/mL range and converted to μg/g.

For data set [5], the system named is GCPII. Description: Mass spectrometry of NAA and NAAG in post-mortem brains of EAE mice. The data set is classed as in vivo. As to conditions: Mean±SEM, 50 days after EAE immunization. As for the experimental part: as §1
The subject of data set [6] is EAE mice. Nature of the data set: Fear conditioning test in EAE mice. In kind it is in vivo. Here is the method:
To measure fear memory and amygdala function in EAE mice, fear conditioning tests were performed. Following the Barnes maze testing, animals were given 1-2 weeks rest then subjected to fear conditioning. Briefly, animals were placed in a fear conditioning chamber for 240 seconds on 3 consecutive days. On day 1, a 2000 Hz tone was played for 28 seconds (seconds 180-208), immediately followed by a 2 second scrambled footshock (seconds 208-210). On day 2, animals were placed back in the same testing environment, but neither sound nor shock was administered. On days 3 and 5, mice were placed in a novel wooden box inside the fear conditioning chamber, and a 2000 Hz tone was played for 120 seconds (seconds 121-240). The duration of freezing behavior on each day was measured using FreezeScan software (Clever Sys Inc., Reston, Va.).

Read-outs that look alike come from different tables or passages of the source.

Take `O=C(O)CCC(CP(=O)(O)O)C(=O)O` (centres unmarked) [2-PMPA, 2-(phosphonomethyl)pentanedioic acid]: the “Disease severity and progression, as measured by EAE disease scores” value in data set [1] was “did not differ”. For the same molecule, in data set [2] (100 mg/kg daily i.p., vs vehicle), the “Primary latency, total latency and path efficiency on the first two days of Barnes maze testing” value is reported as “equal between groups”. Besides, the “Path efficiency, first trial of day 4 compared to baseline (day 1, trial 1)” value in data set [2] (Mean±SEM, 100 mg/kg daily i.p., p=0.0029 vs Control) is −0.7276±0.0295. Besides, in data set [2] (Mean±SEM, 100 mg/kg daily i.p., p=0.0072 vs Control), the “Primary latency, first trial of day 4 compared to baseline (day 1, trial 1)” value came out at 167.4±1.187. Besides, the “Total latency, first trial of day 4 compared to baseline (day 1, trial 1)” value in data set [2] (Mean±SEM, 100 mg/kg daily i.p., p=0.0171 vs Control) is recorded as 167.4±1.187. For the same molecule, the “Path efficiency, back-to-back trials on consecutive days (long-term memory)” value in data set [2] (Mean±SEM, e.g. trial 4 of day 3 vs. trial 1 of day 4, p=0.020 vs controls) is on record as −0.1377±0.0937. In addition, the “Total latency, back-to-back trials on consecutive days (long-term memory)” value in data set [2] (Mean±SEM, e.g. trial 4 of day 3 vs. trial 1 of day 4, p=0.021 vs controls) was found to be 13.14±7.69. Further, in data set [2] (vs control EAE group), the “Maximum speed in the maze” value was “No differences”. Besides, in data set [3], the “Time spent in the closed arms” value is given as 224.2±10.07. Moreover, the “Time spent in the open arms” value in data set [3] came to 34.10±9.22. Further, the concentration at 50 days after EAE immunization is 832 ± 56 ng/g in data set [4] (cerebellum, read-out: 2-PMPA in the cerebellum); 1190 ± 222 ng/g in data set [4] (frontal cortex, read-out: 2-PMPA in the frontal cortex); 835 ± 264 ng/g in data set [4] (hippocampus, read-out: 2-PMPA in the hippocampus). In addition, in data set [5] (p=0.0002 vs control), the “NAAG concentration in the frontal cortex” value was found to be 32.91 ± 0.93 µg/g. For the same molecule, the “NAAG concentration in the cerebellum” value in data set [5] (p=0.0655 vs control) is 102.4 ± 2.3 µg/g. In data set [5] (p=0.2895 vs control), the “NAA in the hippocampus” value was found to be 985.0 ± 48.12 µg/g. Also, the “NAA in the frontal cortex” value in data set [5] (p=0.3035 vs control) came to 1134 ± 45.65 µg/g. In addition, the “NAA in the cerebellum” value in data set [5] (p=0.3053 vs control) turned out to be 899.3 ± 19.66 µg/g. The “NAAG concentration in the hippocampus” value in data set [5] (p=0.8575 vs control) is 54.98 ± 2.037 µg/g. For the same molecule, the “Baseline freezing on Day 1” value in data set [6] (Day 1) is reported as less than 20%. Moreover, the “Cued freezing behavior on Day 3” value in data set [6] (Day 3, vs control) is recorded as “No differences”. In addition, the “Cued freezing in response to the 120 second tone on Day 5” value in data set [6] (Day 5, specifically in the last 60 seconds, vs control) is listed as “increased cued freezing”. In addition, in data set [6] (Mean±SEM, Day 2, % time freezing (FIG. 5 legend)), the “Contextual freezing on Day 2” value amounted to 50.49±4.18.
